Common to all, as to assay: KINOMEscan Assay (DiscoverX)
Common to all, as to type: binding
What all share (conditions): read-out: % DMSO Ctrl

The target in experiment [1] is T1, ADCK4 (Homo sapiens, UniProt Q96D53).
T1 construct: purchased DiscoverX
T1 sequence (Q96D53 1-544): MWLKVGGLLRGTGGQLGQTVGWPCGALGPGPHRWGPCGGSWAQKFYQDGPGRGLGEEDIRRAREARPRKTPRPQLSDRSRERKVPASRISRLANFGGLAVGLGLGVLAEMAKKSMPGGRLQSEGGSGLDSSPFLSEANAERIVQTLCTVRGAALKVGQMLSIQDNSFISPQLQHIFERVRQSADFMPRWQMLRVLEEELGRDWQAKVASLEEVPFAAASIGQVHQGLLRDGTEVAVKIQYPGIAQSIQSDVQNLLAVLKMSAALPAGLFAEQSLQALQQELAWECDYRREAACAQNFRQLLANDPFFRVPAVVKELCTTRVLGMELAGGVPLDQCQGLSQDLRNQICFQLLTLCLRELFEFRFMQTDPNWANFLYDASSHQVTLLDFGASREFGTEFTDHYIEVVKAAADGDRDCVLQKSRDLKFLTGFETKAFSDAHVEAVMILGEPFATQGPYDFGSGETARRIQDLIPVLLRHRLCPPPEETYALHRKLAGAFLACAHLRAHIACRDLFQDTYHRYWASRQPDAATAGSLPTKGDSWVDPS

Experiment [2] addresses T2, MEK2 (Homo sapiens, UniProt P36507).
T2 construct: purchased DiscoverX

In experiment [3] the target is T3, IRAK4 (Homo sapiens, UniProt Q9NWZ3).
T3 construct: purchased DiscoverX
T3 sequence (Q9NWZ3 1-460): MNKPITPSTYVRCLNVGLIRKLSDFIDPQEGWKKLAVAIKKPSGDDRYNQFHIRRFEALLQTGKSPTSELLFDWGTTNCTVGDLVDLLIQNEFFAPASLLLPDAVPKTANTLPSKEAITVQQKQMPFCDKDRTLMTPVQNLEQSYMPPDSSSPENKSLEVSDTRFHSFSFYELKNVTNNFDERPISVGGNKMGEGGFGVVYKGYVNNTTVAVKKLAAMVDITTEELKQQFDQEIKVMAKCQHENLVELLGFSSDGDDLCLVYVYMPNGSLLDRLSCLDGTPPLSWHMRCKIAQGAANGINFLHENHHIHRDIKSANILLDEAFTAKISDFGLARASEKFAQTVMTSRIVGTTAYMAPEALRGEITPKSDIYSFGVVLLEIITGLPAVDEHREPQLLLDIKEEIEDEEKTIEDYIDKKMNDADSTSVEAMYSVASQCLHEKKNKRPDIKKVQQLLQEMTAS

Experiment [4] deals with T4, LRRK2(G2019S) (Homo sapiens, UniProt Q5S007, G2019S).
T4 construct: purchased DiscoverX

The target of experiment [5] is T5, SGK (Homo sapiens, UniProt O00141).
T5 construct: purchased DiscoverX
T5 sequence (O00141 1-431): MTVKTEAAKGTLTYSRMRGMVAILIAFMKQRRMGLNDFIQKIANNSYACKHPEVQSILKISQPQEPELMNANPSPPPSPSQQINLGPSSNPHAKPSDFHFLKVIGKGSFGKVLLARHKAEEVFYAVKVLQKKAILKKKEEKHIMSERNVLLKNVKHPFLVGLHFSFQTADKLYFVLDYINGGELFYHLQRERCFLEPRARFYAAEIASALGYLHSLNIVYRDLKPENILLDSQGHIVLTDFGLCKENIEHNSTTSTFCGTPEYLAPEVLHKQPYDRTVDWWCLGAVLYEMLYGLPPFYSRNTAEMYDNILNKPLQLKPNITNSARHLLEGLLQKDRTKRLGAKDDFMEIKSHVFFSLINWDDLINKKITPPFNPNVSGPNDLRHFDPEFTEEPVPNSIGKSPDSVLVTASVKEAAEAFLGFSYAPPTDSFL

The target in experiment [6] is T6, JAK3(JH1DOMAIN-CATALYTIC) (Homo sapiens, UniProt P52333).
T6 construct: JH1DOMAIN; purchased DiscoverX

Experiment [7] addresses T7, IRAK3 (Homo sapiens, UniProt Q9Y616).
T7 construct: purchased DiscoverX
T7 sequence (Q9Y616 1-596): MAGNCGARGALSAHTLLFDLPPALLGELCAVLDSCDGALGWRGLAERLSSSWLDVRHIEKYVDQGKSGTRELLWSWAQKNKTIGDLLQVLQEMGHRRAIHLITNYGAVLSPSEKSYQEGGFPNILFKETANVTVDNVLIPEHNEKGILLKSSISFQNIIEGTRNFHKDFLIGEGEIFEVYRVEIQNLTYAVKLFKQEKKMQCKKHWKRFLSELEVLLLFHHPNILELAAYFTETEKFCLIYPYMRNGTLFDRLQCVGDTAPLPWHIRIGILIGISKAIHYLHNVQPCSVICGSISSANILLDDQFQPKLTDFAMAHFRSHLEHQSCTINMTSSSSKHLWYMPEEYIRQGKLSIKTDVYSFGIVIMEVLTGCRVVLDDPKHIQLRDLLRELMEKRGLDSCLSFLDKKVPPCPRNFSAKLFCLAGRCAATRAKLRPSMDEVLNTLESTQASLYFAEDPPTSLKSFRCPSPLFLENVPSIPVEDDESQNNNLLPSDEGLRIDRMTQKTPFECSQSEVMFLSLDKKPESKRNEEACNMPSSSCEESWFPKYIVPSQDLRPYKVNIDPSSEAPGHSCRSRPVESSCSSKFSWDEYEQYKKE

Experiment [8] concerns the target T8, PIM3 (Homo sapiens, UniProt Q86V86).
T8 construct: purchased DiscoverX

Experiment [9] addresses T9, PIM1 (Homo sapiens, UniProt P11309).
T9 construct: purchased DiscoverX

The structures appear in SMILES notation. Like-named read-outs stand apart in the source and are kept apart here.

In US12421232B2, “Kinase inhibitor compounds and compositions and methods of use” (ICAHN SCHOOL OF MEDICINE AT MOUNT SINAI, priority 2018, dated 2025) one finds remaining binding data, which are given here for four compounds.

T2 sequence (P36507 whole entry): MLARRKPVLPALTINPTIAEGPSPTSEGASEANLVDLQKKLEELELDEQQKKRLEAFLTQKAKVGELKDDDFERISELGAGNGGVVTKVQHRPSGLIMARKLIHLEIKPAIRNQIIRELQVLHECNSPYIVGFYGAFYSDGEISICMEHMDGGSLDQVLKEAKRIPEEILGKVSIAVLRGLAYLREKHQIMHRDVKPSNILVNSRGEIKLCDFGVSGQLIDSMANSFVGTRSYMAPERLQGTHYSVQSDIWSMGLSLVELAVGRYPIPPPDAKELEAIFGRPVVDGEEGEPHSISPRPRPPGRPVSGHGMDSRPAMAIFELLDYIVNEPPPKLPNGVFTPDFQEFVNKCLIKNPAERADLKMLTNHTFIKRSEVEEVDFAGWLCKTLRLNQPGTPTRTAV
T9 sequence (P11309 whole entry): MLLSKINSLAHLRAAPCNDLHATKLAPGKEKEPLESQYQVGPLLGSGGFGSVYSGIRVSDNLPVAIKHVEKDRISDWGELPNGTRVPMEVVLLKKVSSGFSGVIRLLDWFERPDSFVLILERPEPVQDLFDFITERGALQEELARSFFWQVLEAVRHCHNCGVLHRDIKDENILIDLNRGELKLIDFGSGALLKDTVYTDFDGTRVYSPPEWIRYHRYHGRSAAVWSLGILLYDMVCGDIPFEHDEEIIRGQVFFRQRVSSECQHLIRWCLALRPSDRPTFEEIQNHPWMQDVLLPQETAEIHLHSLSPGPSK
T6 sequence (P52333 822-1111 limits assumed): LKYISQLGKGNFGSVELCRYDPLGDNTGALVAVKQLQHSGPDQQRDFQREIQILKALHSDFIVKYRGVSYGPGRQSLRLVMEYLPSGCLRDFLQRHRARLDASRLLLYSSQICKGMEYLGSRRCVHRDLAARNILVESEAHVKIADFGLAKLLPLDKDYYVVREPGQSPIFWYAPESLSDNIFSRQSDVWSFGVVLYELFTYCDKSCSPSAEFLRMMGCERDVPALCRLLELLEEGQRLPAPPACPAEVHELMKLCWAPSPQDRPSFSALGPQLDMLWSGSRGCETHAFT
T4 sequence (Q5S007 whole entry G2019S): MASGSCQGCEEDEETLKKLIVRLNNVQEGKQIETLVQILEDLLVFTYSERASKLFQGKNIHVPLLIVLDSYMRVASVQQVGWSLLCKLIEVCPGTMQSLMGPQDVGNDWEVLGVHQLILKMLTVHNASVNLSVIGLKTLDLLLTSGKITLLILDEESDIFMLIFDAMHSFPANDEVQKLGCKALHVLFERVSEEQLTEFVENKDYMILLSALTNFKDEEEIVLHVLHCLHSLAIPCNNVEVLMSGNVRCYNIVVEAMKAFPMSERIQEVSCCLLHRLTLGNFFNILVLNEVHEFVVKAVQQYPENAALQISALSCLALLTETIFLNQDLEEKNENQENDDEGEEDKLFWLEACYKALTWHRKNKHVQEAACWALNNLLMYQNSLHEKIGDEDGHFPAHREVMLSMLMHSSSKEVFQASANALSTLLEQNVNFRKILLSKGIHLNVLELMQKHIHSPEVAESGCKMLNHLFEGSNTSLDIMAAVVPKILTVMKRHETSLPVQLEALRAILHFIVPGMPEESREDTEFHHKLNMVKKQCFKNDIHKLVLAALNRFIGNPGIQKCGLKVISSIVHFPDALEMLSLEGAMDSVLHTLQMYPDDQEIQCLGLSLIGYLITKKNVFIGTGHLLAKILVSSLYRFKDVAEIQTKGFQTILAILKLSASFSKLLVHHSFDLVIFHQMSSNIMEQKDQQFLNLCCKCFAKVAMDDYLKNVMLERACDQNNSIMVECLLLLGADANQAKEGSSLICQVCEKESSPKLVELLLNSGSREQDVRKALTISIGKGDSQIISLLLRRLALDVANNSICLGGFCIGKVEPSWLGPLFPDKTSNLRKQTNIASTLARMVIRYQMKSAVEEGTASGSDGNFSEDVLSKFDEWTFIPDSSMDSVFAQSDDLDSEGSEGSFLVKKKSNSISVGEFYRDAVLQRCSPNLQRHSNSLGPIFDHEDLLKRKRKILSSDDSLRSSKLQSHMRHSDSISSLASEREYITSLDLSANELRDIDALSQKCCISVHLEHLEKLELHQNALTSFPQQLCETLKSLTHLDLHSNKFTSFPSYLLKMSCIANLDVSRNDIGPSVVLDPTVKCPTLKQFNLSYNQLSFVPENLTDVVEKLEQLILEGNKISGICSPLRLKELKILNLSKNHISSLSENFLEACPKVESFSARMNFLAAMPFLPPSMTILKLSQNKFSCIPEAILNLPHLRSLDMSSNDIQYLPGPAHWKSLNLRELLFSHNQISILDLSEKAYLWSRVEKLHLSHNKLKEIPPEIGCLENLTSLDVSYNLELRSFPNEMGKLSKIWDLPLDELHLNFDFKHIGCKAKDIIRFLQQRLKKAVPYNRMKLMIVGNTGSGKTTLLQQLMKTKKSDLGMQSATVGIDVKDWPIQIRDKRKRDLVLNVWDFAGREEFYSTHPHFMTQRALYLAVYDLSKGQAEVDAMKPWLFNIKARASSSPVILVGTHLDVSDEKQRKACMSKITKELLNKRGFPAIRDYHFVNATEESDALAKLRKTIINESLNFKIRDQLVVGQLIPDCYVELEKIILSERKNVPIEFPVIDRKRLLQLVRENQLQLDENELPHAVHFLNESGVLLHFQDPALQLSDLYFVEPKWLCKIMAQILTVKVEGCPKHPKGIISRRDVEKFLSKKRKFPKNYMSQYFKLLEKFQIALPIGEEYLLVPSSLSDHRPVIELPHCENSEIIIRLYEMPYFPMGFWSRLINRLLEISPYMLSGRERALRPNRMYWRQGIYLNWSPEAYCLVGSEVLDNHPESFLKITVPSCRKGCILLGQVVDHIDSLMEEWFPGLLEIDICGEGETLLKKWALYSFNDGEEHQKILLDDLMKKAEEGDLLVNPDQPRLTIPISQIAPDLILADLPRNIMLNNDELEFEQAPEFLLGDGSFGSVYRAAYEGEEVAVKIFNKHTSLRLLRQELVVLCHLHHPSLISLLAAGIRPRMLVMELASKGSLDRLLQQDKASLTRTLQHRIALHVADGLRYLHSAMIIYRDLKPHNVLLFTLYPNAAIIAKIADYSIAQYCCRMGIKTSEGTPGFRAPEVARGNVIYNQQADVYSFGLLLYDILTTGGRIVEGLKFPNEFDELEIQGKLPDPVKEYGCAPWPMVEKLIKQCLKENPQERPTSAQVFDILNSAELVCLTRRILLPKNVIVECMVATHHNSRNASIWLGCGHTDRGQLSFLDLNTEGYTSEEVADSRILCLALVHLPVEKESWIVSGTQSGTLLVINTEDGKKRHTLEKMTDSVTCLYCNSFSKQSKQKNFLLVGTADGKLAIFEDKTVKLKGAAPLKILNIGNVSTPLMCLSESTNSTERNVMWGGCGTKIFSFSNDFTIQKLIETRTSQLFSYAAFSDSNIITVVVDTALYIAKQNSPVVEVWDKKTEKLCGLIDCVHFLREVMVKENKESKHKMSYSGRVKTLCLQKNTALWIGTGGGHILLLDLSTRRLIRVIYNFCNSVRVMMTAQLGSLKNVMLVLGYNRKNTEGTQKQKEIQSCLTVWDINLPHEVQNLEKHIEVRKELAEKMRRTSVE

With `COc1ccc2c(c1)[nH]c1c(C)nc(CO)cc12` [Compound 2-8, (1-Methyl-7-methoxy-9H-pyrido[3,4-b]indol-3-yl)methanol], the remaining binding at 10 µM in [1] (ADCK4, 10 μM) is 84%; in [2] (MEK2, 10 μM), 100%; in [3] (IRAK4, 10 μM) it was 70%; in experiment [4] (LRRK2(G2019S) mutant, 10 μM), 98%; in experiment [5] (SGK, 10 μM) it was 31%; in experiment [6] (JAK3(JH1DOMAIN-[…]), 10 μM), 96%. The remaining binding at 10 µM amounted to 70% in experiment [7] (IRAK3, 10 μM) and 15% in experiment [8] (PIM3, 10 μM).
On to `COc1ccc2c3ccnc(C)c3n(CCCc3noc(N)n3)c2c1` [Compound 20-13, 3-(3-(7-Methoxy-1-methyl-β-carbolin-9-yl)propyl)-5-amino-1,2,4-oxadiazole], for which the remaining binding at 10 µM came to 100% in experiment [1]; 0% in experiment [2]; 90% in [3]; 5.1% in experiment [4]; 28% in [9]; 90% in [5]. In addition, the remaining binding at 10 µM in experiment [6] is 87%; in experiment [7], 62%; in [8], 39%.
In the case of `C#CCn1c2cc(OC)ccc2c2ccnc(C)c21` [Compound 20-23a, 3-(7-Methoxy-1-methyl-β-carbolin-9-yl)-propan-1-yne], the remaining binding at 10 µM was 9.3% in experiment [1]; 96% in [2]; 6.4% in [3]; 100% in [4]; 26% in experiment [9] (PIM1, 10 μM); 63% in experiment [5]. Besides, the remaining binding at 10 µM amounted to 100% in experiment [6] (JAK3(JH1DOMAIN-[…]), 10 μM); 34% in experiment [7] (IRAK3, 10 μM); 32% in experiment [8] (PIM3, 10 μM).
Regarding `COc1ccc2c(c1)[nH]c1c(C)nccc12` [Harmine, reference compound], the remaining binding at 10 µM amounted to 45% in [9], 61% in experiment [6], 35% in experiment [7] and 43% in [8].
